Like-named read-outs stand apart in the source and are kept apart here.
How the values were obtained:
[1] = biological target: T1, recombinant DGKα (Rattus norvegicus, UniProt P51556); experiment: Gel-based ATP acyl phosphate chemical proteomic assay; assay type: binding; conditions: for blockade of DGKα ATP probe labeling: compounds 100 μM (ATP 1 mM; RF001 at indicated concentrations), probe 10 μM
T1 construct: expressed in transfected cells; host or cells: HEK293T (SILAC HEK293T for LC-MS)
Procedure: Cell pellets were resuspended in kinase buffer (Dulbecco's PBS (DPBS, Hyclone), 20 mM MgCl2, EDTA-free protease inhibitors (Pierce)) and then lysed by sonication (3×1 sec pulse, 20% amplitude). The cell lysates were then subjected to centrifugation (100,000×g, 45 min at 4° C.) to isolate the cytosolic fraction in the supernatant and the membrane fraction as a pellet. The membrane pellet was resuspended in kinase buffer by sonication. […] The only exception was experiments involving DGKE; recombinant DGKE protein was most prominently expressed in the membrane fraction and so this fraction was utilized to study DGKE enzyme (see FIG. 8). Protein concentrations were measured using the Bio-Rad DC protein assay. Samples were stored at −80° C. until use.
Proteome concentration was adjusted to 2 mg/mL in kinase buffer. Proteomes were first pre-treated with compound (0.6 μL, 50× stock in DMSO) mixed with gentle flicking, and incubated for 30 min at 25° C. in a microfuge tube (30 μL reaction volume). […] Reactions were then quenched with 10 AL of 4×SDS-PAGE loading buffer. Protein samples (15 μL) were loaded onto 4-20% TGX Stain-Free Protein Midi Gel and resolved by SDS-PAGE at 150V for 55 min. Proteins were then transferred to a nitrocellulose blot by Bio-Rad Trans-Blot Turbo Transfer System (25V. 10 min) to enhance sensitivity. The nitrocellulose blot was then incubated in blocking solution (30 mL, 3% BSA in TBS-T) for 1 h at 25° C. with gentle shaking. The blot was then transferred immediately to antibody solution (30 mL, 5% BSA in ddH2O with 0.1% Tween20 and 1:3000 Streptavidin DyLight 550) and incubated for 2 h at 25° C. with gentle shaking. The blot was then rinsed 5 times for 5 min in TBS-T. and then transferred into ddH2O. The blot was then imaged by in-blot fluorescence scanning on a ChemiDoc MP Imaging System. Fluorescence intensity signals were normalized to total lane protein using the Bio-rad Stain Free imaging (Posch et al., 2013).
The percentage of enzyme activity remaining was determined by comparing integrated band intensities or luminescence of inhibitor—with DMSO-treated samples for gel-based chemical proteomic or ADP-glo assays, respectively. For both chemical proteomic and ADP-glo methods, nonlinear regression analysis was used to determine the IC50 values from a dose-response curve generated using GraphPad Prism. Data are shown as mean±s.e.m. Determination of significance was performed by one-way ANOVA. All statistical analyses were performed using GraphPad Prism.

[2] = biological target: Zeta (DGK zeta) (Homo sapiens, UniProt Q13574); experiment: DGK isoform % Activity screen; assay type: biochemical
Chain of Zeta (DGK zeta) (Q13574 whole entry, canonical isoform): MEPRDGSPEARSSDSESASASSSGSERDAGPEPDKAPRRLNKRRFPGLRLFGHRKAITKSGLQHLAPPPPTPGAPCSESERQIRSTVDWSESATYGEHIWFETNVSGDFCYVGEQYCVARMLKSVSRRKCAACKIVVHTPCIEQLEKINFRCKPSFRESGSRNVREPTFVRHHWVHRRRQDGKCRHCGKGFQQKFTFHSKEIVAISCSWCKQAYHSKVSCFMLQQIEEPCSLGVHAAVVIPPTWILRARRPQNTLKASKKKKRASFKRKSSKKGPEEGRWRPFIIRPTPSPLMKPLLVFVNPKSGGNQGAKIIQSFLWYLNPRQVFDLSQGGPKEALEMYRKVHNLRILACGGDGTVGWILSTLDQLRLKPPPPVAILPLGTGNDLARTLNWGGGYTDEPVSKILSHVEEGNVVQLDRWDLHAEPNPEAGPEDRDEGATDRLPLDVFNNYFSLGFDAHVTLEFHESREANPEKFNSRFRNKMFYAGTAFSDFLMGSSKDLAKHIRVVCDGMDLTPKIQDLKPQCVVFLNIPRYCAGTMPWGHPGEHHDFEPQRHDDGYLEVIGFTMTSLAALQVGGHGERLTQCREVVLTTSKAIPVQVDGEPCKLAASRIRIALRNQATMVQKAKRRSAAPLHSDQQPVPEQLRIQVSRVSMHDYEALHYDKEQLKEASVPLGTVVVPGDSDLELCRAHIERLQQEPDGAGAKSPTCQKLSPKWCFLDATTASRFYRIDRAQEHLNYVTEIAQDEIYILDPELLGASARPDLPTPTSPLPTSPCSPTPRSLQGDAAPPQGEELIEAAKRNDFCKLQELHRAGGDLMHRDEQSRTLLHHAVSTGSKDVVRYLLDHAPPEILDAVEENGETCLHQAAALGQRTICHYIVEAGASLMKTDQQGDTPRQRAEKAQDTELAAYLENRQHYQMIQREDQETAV

T1 sequence (P51556 whole entry): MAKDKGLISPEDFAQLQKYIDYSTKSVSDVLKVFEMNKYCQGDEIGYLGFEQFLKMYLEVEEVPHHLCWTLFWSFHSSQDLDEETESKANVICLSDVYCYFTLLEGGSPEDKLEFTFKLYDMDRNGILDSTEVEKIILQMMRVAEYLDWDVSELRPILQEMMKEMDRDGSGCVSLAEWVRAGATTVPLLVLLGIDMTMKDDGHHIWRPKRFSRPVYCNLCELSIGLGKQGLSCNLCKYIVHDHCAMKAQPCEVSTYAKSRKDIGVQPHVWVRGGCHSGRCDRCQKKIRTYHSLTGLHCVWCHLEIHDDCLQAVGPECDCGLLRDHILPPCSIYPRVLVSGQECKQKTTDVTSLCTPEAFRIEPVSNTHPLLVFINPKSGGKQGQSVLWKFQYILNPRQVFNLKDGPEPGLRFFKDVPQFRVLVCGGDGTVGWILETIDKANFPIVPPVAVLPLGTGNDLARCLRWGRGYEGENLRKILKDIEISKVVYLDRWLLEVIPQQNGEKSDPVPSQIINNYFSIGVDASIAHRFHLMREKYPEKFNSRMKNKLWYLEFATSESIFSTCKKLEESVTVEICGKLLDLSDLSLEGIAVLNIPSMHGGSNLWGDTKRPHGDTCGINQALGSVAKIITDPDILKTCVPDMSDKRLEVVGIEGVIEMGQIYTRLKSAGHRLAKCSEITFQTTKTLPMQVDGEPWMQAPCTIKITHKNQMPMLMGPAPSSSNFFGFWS

activity at 100 µM [2] | inhibition at 1000 µM ([1]; 1 mM, read-out: inhibition of DGKα activity in the probe-binding assay) | activity at 1000 µM ([2]; read-out: 1 mM % Activity, Zeta) | Compound | blockade of DGKα ATP probe labeling ([1]; 30 min) | IC50 ([1]; IC50, blockade of ATP probe labeling of DGKα (gel-based), 10 μM ATP probe, 30 min) | IC50 ([1]; read-out: 95% confidence intervals for IC50 values, gel-based assay)
90% |  |  | O=C(c1ccc(F)cc1)C1CCN(CCn2c(=O)[nH]c3ccccc3c2=O)CC1 [Ketanserin] | not ketanserin |  | 
80% | > 80% | 0% | Fc1ccc(C(=C2CCNCC2)c2ccc(F)cc2)cc1 [RF001, 4-(Bis(4-fluorophenyl)methylene) piperidine] | blocked probe labeling in a concentration-dependent manner |  | 

Compound | activity at 100 µM [2] | inhibition at 1000 µM ([1]; 1 mM, read-out: inhibition of DGKα activity in the probe-binding assay) | activity at 1000 µM ([2]; read-out: 1 mM % Activity, Zeta) | blockade of DGKα ATP probe labeling ([1]; 30 min) | IC50 ([1]; IC50, blockade of ATP probe labeling of DGKα (gel-based), 10 μM ATP probe, 30 min) | IC50 ([1]; read-out: 95% confidence intervals for IC50 values, gel-based assay)
Cc1nc2sccn2c(=O)c1CCN1CCC(=C(c2ccc(F)cc2)c2ccc(F)cc2)CC1 [Ritanserin] | 86% |  |  | blocked probe labeling | 57 µM | 17 to 192 µM
